According to patent US5298411A, “Glucose dehydrogenase from pseudomonas” (Toyo Boseki Kabushiki Kaisha, priority 1990, dated 1994):
Like-named read-outs stand apart in the source and are kept apart here.

Tests used:
Type in all cases: biochemical, Pseudomonas sp. FH1227
[1] = tested on: glucose dehydrogenase (EC1.1.1.47)
Experimental: (§1) (11) Enzyme activity determination
The enzyme activity was determined by taking the enzyme activity producing 1 micromole of NADH per 1 minute under the conditions mentioned below as 1 unit.
1. The following reaction mixture is prepared in a cuvette (d=1 cm) and preheated at 37° C. for about 5 minutes.
2. An enzyme solution (0.05 ml) is added thereto, and the mixture is gently stirred. The change of absorbance at 340 nm is recorded for 5 minutes using a spectrophotometer controlled at 37° C. with water as the control. The change of absorbance per 1 minute is estimated on the basis of the linear portion from minute 2 to minute 5. (ΔOD test)
3. The blank test is conducted by following the same procedure as above except that 0.05 ml of […] (with phosphate buffer, pH 7.0) is used in place of the enzyme solution, to estimate the change in absorbance per 1 minute. (ΔOD blank)
(§2) Calculation equation: [formula]

[2] = tested on: glucose dehydrogenase (EC1.1.1.47); assay: Substrate specificity of the glucose dehydrogenase (enzyme activity determination); details: for Relative activity (%): Substrate (100 mM), β-D-glucose = 100.0
Source text: (2) Substrate specificity
as §1
(A) 0.1M Tris-HCl buffer, pH 8.0
as §2
1.0=optical path length (cm)

[3] = tested on: glucose dehydrogenase (EC1.1.1.47); assay: Km value determination
[4] = inhibitor concentration 2.0 × 10^-3 M, non added = 100.0
[5] = read-out: Km value to the coenzyme

[Cl][Hg][Cl] [mercury chloride]
Inhibition of the enzyme [1]: inhibited | Relative activity (%) [1, 4]: 5.9%

O[C@H]1[C@H](O)[C@@H](O)[C@H](O)[C@@H](O)[C@H]1O [inositol]
Relative activity (%) [2]: 0.2%

NC(=O)c1ccc[n+]([C@@H]2O[C@H](COP(=O)([O-])OP(=O)(O)OC[C@H]3O[C@@H](n4cnc5c(N)ncnc54)[C@H](OP(=O)(O)O)[C@@H]3O)[C@@H](O)[C@H]2O)c1 [NADP]
Km [3, 5]: 0.0407 mM

O=[N+]([O-])[O-].[Ag+] [silver nitrate]
Inhibition of the enzyme [1]: inhibited | Relative activity (%) [1, 4]: 7.1%

OC[C@@H](O)[C@@H](O)[C@H](O)[C@H](O)CO [D-mannitol]
Relative activity (%) [2]: 0.0%

xylose
Relative activity (%) [2]: 8.9%

OC[C@@H](O)[C@@H](O)[C@H](O)[C@@H](O)CO [D-sorbitol]
Relative activity (%) [2]: 0.1%

2-deoxy-glucose
Substrate specificity [2]: specifically acts on | Relative activity (%) [2]: 119.7%

O=C(CO)[C@@H](O)[C@H](O)[C@@H](O)CO [L-sorbose]
Relative activity (%) [2]: 0.3%

OC[C@@H]1OC(O)[C@@H](O)[C@H](O)[C@H]1O (stereo partly drawn) [L-glucose]
Relative activity (%) [2]: 0.0%

OC[C@H]1OC(O)[C@@H](O)[C@@H](O)[C@@H]1O (stereo partly drawn) [D-mannose]
Relative activity (%) [2]: 2.4%

OC[C@H]1O[C@@H](O[C@H]2[C@H](O)[C@@H](O)C(O)O[C@@H]2CO)[C@H](O)[C@@H](O)[C@H]1O (stereo partly drawn) [D-lactose]
Relative activity (%) [2]: 1.2%

NC(=O)c1ccc[n+]([C@@H]2O[C@H](COP(=O)([O-])OP(=O)(O)OC[C@H]3O[C@@H](n4cnc5c(N)ncnc54)[C@H](O)[C@@H]3O)[C@@H](O)[C@H]2O)c1 [NAD]
Km [3, 5]: 0.308 mM

OC[C@H]1O[C@@H](O)[C@H](O)[C@@H](O)[C@@H]1O [β-D-glucose]
Substrate specificity [2]: specifically acts on | Relative activity (%) [2]: 100.0% | Km ([3]; coenzyme NAD, read-out: Km value to β-D-glucose): 13.8 mM | Km ([3]; coenzyme NADP, read-out: Km value to β-D-glucose): 12.5 mM

O=C(O)CI [monoiodoacetate]
Inhibition of the enzyme [1]: inhibited | Relative activity (%) [1]: 0.4%

O=C(CO)[C@@H](O)[C@H](O)[C@H](O)CO [D-fructose]
Relative activity (%) [2]: 0.8%

OC[C@H]1O[C@@](CO)(O[C@H]2O[C@H](CO)[C@@H](O)[C@H](O)[C@H]2O)[C@@H](O)[C@@H]1O [saccharose]
Relative activity (%) [2]: 0.0%

OC[C@H]1O[C@H](O[C@H]2[C@H](O)[C@@H](O)[C@H](O)O[C@@H]2CO)[C@H](O)[C@@H](O)[C@@H]1O [maltose]
Relative activity (%) [2]: 3.9%

OC[C@H]1OC(O)[C@H](O)[C@@H](O)[C@H]1O (stereo partly drawn) [D-galactose]
Relative activity (%) [2]: 0.1%
